Reference: patent US20090214607A1, “Topical use of teprenone” (SEDERMA, priority 2005, published 2009)

Experiments:
[1] = Lipid peroxidation of liposomes using H2O2+FeCl2; format: biochemical; settings: for Variation of peroxydation: vs negative control
Experimental: In order to determine the action of teprenone as per the invention, the effect of the active substance on the lipid peroxidation of liposomes was analyzed. The liposomes were used to model cutaneous lipids.
In this method, liposomes are exposed to the test compound and a Fenton oxidative system. The peroxidation is determined by spectrophotometry. Trolox, a known anti-free radical agent, is used as the positive control at the same molar concentration as a teprenone.

Thioredoxin = Thioredoxin in cellular supernatant of human fibroblasts (ELISA), with or without UVA; format: cell-based; settings: for Thioredoxin rate in cellular supernatant: 10^−3%
Experimental: Normal human fibroblasts were tested to ascertain whether exposure to teprenone would stimulate thioredoxin expression in the cellular supernatants.
Human fibroblasts (FHN) in culture were irradiated with UVA (4 and 6 J/cm^2) or not irradiated (control). 24 h before the irradiation, these cells were grown without or with teprenone (GGA at 10^−3%). After irradiation, each case received the same medium (with or without GGA) as before irradiation. Incubations of 24 or 48 h with these fresh mediums were made. Thioredoxin in the cellular supernants was estimated using ELISA method. The results obtained are recapitulated in Table 3

catalase = experiment: Catalase activity in human skin explants after UVB (Clairborne-Aebi method); format: cell-based; settings: for protective effect on enzymatic activity of catalase: vs UVB; for catalase activity: after UVB 2 J/cm2
Experimental: Human skin explants obtained from a patient having undergone plastic surgery were cultured with or without teprenone or Trolox (positive control) for 48 hours then exposed to UV B radiation (2 J/cm^2). After irradiation, the explants were again cultured in fresh medium with or without teprenone or Trolox for 24 hours. Similars explants were also used in immunolabeling tests on heat shock proteins (HSP) and in the apoptosis study.
Catalase anti-oxidant activity was determined by the Clairborne-Aebi method. Hydrogen peroxide (H2O2) consumption is directly proportional to catalase activity. The consumption was determined by spectrophotometry at 240 nm

Hsp27 = Hsp27 immunolabeling in UVB-irradiated human skin explants; format: cell-based; settings: for Number of Hsp27 positive cells/cm: UVB 2 J/cm2, n = 3
Text: Heat Schock proteins (Hsp) are cellular protective molecules which contribute to the correct proteinic folding, thus preserving the protein activity. Hsp 27 is a protective chaperone protein very present in the keratinocytes at the basal state. In situation of UV stress, cell increases its rate of protection and Hsp 27 is strongly overexpressed. Hsp70 is a chaperone protein less expressed in a basal state but induced in response to the UV, thermics, mechanics or infectious stress.
Human skin explants are treated in a similar way to the previous experiment (protection on the catalase activity): taken from a plastic surgery, they are cultivated for 48 h in the presence or not, for control, of teprenone (or trolox) at various concentrations, then irradiated or not using a source UVB (2 J/cm2). After irradiation skin explants were post-treated (24 h) or not with teprenone (or trolox) at the same concentrations.
Explants were embedded in OCT, sectioned using a freezing microtome, and slide mounted. The mounted specimens were immunolabeled with anti-human Hsp antibody.

[2] = tested on: Normal human fibroblasts (NHF); experiment: Replicative senescence: variation of division number; format: cell-based; settings: 1 and 3 μM; long-term contact; 64th day to 95th day
Experimental: Replicative senescence reflects the aging of cells in cultures as they are serially sub-cultured. Normal human fibroblasts (NHF) were cultured in the absence or presence of 1 and 3 μM teprenone. At regular intervals, without awaiting confluence, the cells were counted, observed and sub-cultured at the same rate.

[3] = tested on: sunburn cells (SBC) in human skin explants; experiment: Sunburn cells (SBC) in human skin explants after UVB; format: cell-based; settings: for % SBC (Sun Burn Cells): after UVB 2 J/cm^2
Experimental: With a view to determining the action of teprenone as per the invention, the effect of the active substance on the presence of sunburn cells (SBC) and apoptotic cell in human skin explants was investigated.
Human skin explants are treated in a way similar to the preceding experiment of description of the protective role of the teprenone on the catalase activity (obtained from a patient having undergone plastic surgery, cultured with or without teprenone for 48 hours then exposed to UV B radiation (2 J/cm^2). After irradiation, the explants were again cultured in fresh medium with or without teprenone for 24 hours).
SBC were evidenced on paraffin-wax-embedded skin explant sections by staining with […]. SBC, apoptotic keratinocytes with pyknotic nuclei and eosinophilic cytoplasm, are characteristic of mammalian epidermis exposed to UV B radiation.

IL8 = IL8 in supernatant of γ-irradiated NHEK cells (ELISA); format: cell-based, human; settings: for decrease of IL8: vs irradiated control; for expression of IL8: γ-irradiation 5 Gγ, 4 days
Experimental: (§1) In order to determine the action of teprenone as per the invention, the effect of GGA on the IL8 and VEGF expression was investigated in the supernatants of irradiated (with 5 Gy) NHEK cells. After γ-irradiation, NHEK cells are treated during 4 days with or without GGA at differents concentrations. The amount of IL8 and VEGF present in the cells supernatant is determined with ELISA method.

VEGF = VEGF in supernatant of γ-irradiated NHEK cells (ELISA); format: cell-based, human; settings: for decrease of VEGF: vs irradiated control; for expression VEGF: γ-irradiation 5 Gγ, 4 days
Experimental: as §1

[4] = tested on: human primary keratinocytes; experiment: Gene expression profile by DNA array (CodeLink Whole Genome bioarray); format: cell-based
Experimental: Human primary keratinocyte cultures were prepared and incubated in the presence or absence of teprenone. The culture supernatants were withdrawn and the cell monolayers frozen at −80° C. The un-thawed monolayers were exposed to lysis buffer and the cell RNA extracted using a commercially-available kit (Roche kit V6: total RNA extraction). Solvent controls underwent the same extraction process in parallel. The expression profiles of the gene sequences were determined using a CodeLink Whole Genome bioarray for each sample of purified RNA. The values obtained were normalized relative to the controls.

CC(=O)CCC=C(C)CCC=C(C)CCC=C(C)CCC=C(C)C [Teprenone, 6,10,14,18-tetramethyl-5,9,13-nonadecatetren-2-one]
Variation of peroxydation ([1]; concentration 3 · 10^−2%): −75%
Variation of peroxydation ([1]; concentration 3 · 10^−3%): −26%
Variation of peroxydation ([1]; concentration 3 · 10^−4%): −16%
decrease in peroxidation ([1]; concentration 3.10^−2%): 75%
Variation of peroxydation ([1]; concentration 10^−2%): −39%
Variation of peroxydation ([1]; concentration 10^−3%): −20%
Thioredoxin rate in cellular supernatant (Thioredoxin; UVA 4 J/cm^2, incubation 24 h): 24.3 ng/mg protein
Thioredoxin rate in cellular supernatant (Thioredoxin; UVA 4 J/cm^2, incubation 48 h): 32.4 ng/mg protein
Thioredoxin rate in cellular supernatant (Thioredoxin; UVA 6 J/cm^2, incubation 24 h): 43.7 ng/mg protein
Thioredoxin rate in cellular supernatant (Thioredoxin; UVA 6 J/cm^2, incubation 48 h): 59.2 ng/mg protein
Thioredoxin rate in cellular supernatant (Thioredoxin; not irradiated, incubation 24 h): 11.6 ng/mg protein
Thioredoxin rate in cellular supernatant (Thioredoxin; not irradiated, incubation 48 h): 28.5 ng/mg protein
increase of thioredoxin rate in the cellular supernatant (Thioredoxin; 24 h incubation, 4 J/cm^2): +30%
increase of thioredoxin rate in the cellular supernatant (Thioredoxin; 24 h incubation, 6 J/cm^2): +40%
increase of thioredoxin rate in the cellular supernatant (Thioredoxin; 24 h incubation, without irradiation): +60%
increase of thioredoxin rate in the cellular supernatant (Thioredoxin; 48 h incubation, 4 J/cm^2): +50%
increase of thioredoxin rate in the cellular supernatant (Thioredoxin; 48 h incubation, 6 J/cm^2): 40%
increase of thioredoxin rate in the cellular supernatant (Thioredoxin; 48 h incubation, non irradiated): +150%
protective effect on enzymatic activity of catalase (catalase; 0.05 mM): +40%
protective effect on enzymatic activity of catalase (catalase; 0.1 mM): +45%
catalase activity (catalase; 0.05 mM): 125 UI/mg of protein
catalase activity (catalase; 0.1 mM): 130 UI/mg of protein
Hsp27: Protection vs. irradiated (%) (Hsp27; 0.05 mM): 50%
Hsp27: Protection vs. irradiated (%) (Hsp27; 0.1 mM): 75%
Hsp27: Protection vs. irradiated (%) (Hsp27; 0.1 mM, listed as GGA): 75%
Number of Hsp27 positive cells/cm (Hsp27; 0.05 mM): 530 cells/cm
Number of Hsp27 positive cells/cm (Hsp27; 0.1 mM): 400 cells/cm
capacities of divisions of the cells [2]: level higher compared to the control
% SBC (Sun Burn Cells) ([3]; 0.05 mM): 45%
% SBC (Sun Burn Cells) ([3]; 0.1 mM): 27%
diminution of SBC ([3]; after UVB, vs irradiated): −66%
decrease of IL8 (IL8; 1.10^−4%): −67%
decrease of IL8 (IL8; 3.10^−5%): −50%
expression of IL8 (IL8; 1 · 10^−4%): 2.12 pg/10^5 cells
expression of IL8 (IL8; 3 · 10^−5%): 3.25 pg/10^5 cells
decrease of VEGF (VEGF; 1 · 10^−4%): −47%
decrease of VEGF (VEGF; 3 · 10^−5%): −30%
expression VEGF (VEGF; 1 · 10^−4%): 3 pg/10⁵ cells
expression VEGF (VEGF; 3 · 10^−5%): 3.5 pg/10⁵ cells
expression of CBX5/HP1 ([4]; 24 hour period): jointly activated
expression of CDK2 ([4]; 24 hour period): jointly activated
expression of ELAVL1 ([4]; 24 hour period): activation
expression of ERBIN gene ([4]; 24 hour period): up-regulated
expression of PTPRF-interacting gene ([4]; 24 hour period): up-regulated
expression of SERTAD3 ([4]; 24 hour period): activated
expression of gene SCLY ([4]; 24 hour period): significantly up-regulated
expression of gene for heat shock protein HSP 27 ([4]; 24 hour period): induction
expression of gene for heat shock protein HSP B3 ([4]; 24 hour period): induction
genes activated, effect on cell lipid content ([4]; cholesterol efflux and fatty acid synthesis): 6 genes
